{
  "source": "patent US20240239790A1",
  "about": "“7-Morpholino-1,6-Naphthyridin-5-yl Derivatives and Pharmaceutical Compositions Thereof Useful as DNA-PK Inhibitor” (adMare Therapeutics Society, priority 2021, published 2024)",
  "data": [
    {"tested_on": "pH2AX induction in HCT116 ATM-/- multicellular tumour spheroids", "assay": "Prodrug Radiation Sensitization in Multicellular Tumour Spheroids, inhibition of pH2AX induction following radiation", "type": "cell-based", "conditions": "Homo sapiens, HCT-116, 20 Gy, 5% O2, inner layers, read-out: Prodrug 5% O2 Inner layers EC50", "protocol": "(§1) Prodrug compounds were assayed to determine their potency in 3D multicellular spheroids in media maintained under 20% vs 5% oxygen. Multicellular tumour spheroids were grown to approximately 0.5 mm in diameter and irradiated with 20 Gy in combination with inhibitor test compounds to determine their potency using HCT 116 and FaDu cell lines. Experiments were carried out in 96 well plates containing 0.7 mls of MEM media containing 10% FBS and 10 mM glucose under 5% CO2 at 37° C. Following dilution of compounds 1:1000 from DMSO stocks, compounds were serially diluted from 10 μM down to 3.5 nM and 5-10 spheroids added. 96 well plates were constantly stirred to avoid spheroids settling during the course of the experiment. Endpoints were pDNA-PK (ser 2056) or pH2AX (ser 139) status in spheroid cryosections taken 1 or 2 hours following radiation and fixed immediately in formalin. Using tumour cell lines deficient in ATM improved the assay signal to noise and gH2AX readout. Using this assay prodrug activity could be compared in the more oxygenated outer spheroid layers versus less oxygenated hypoxic central cell layers.", "units": {"EC50": "nM"}, "values": [
      {"compound": "Cn1c(Cn2nnc(-c3cnc4cc(N5CCOCC5)nc(O[C@H]5CC[C@@H](n6ccnc6)CC5)c4c3)n2)cnc1[N+](=O)[O-]", "note": "[LFA123, 4-[5-(4-imidazol-1-ylcyclohexoxy)-3-[2-[(3-methyl-2-nitro-imidazol-4-yl)methyl]tetrazol-5-yl]-1,6-naphthyridin-7-yl]morpholine]", "EC50": "1000 to 10000"}
    ]},
    {"tested_on": "pH2AX induction in HCT116 ATM-/- multicellular tumour spheroids", "assay": "Prodrug Radiation Sensitization in Multicellular Tumour Spheroids, inhibition of pH2AX induction following radiation", "type": "cell-based", "conditions": "Homo sapiens, HCT-116, 20 Gy, 5% O2, outer layers, read-out: Prodrug 5% O2 Outer layers EC50", "protocol": "as §1", "units": {"EC50": "nM"}, "values": [
      {"compound": "Cn1c(Cn2nnc(-c3cnc4cc(N5CCOCC5)nc(O[C@H]5CC[C@@H](n6ccnc6)CC5)c4c3)n2)cnc1[N+](=O)[O-]", "note": "[LFA123, 4-[5-(4-imidazol-1-ylcyclohexoxy)-3-[2-[(3-methyl-2-nitro-imidazol-4-yl)methyl]tetrazol-5-yl]-1,6-naphthyridin-7-yl]morpholine]", "EC50": "1000 to 10000"}
    ]},
    {"tested_on": "pH2AX induction in HCT116 ATM-/- multicellular tumour spheroids", "assay": "Prodrug Radiation Sensitization in Multicellular Tumour Spheroids, inhibition of pH2AX induction following radiation", "type": "cell-based", "conditions": "Homo sapiens, HCT-116, 20 Gy, 20% O2, outer layers, read-out: Prodrug 20% O2 Outer layers EC50", "protocol": "as §1", "units": {"EC50": "nM"}, "values": [
      {"compound": "Cn1c(Cn2nnc(-c3cnc4cc(N5CCOCC5)nc(O[C@H]5CC[C@@H](n6ccnc6)CC5)c4c3)n2)cnc1[N+](=O)[O-]", "note": "[LFA123, 4-[5-(4-imidazol-1-ylcyclohexoxy)-3-[2-[(3-methyl-2-nitro-imidazol-4-yl)methyl]tetrazol-5-yl]-1,6-naphthyridin-7-yl]morpholine]", "EC50": "1000 to 10000"}
    ]},
    {"target": "T1, DNA-PK phosphorylation at Serine 2056 (Homo sapiens, UniProt P78527)", "T1 construct": "FaDu cells were purchased from ATCC; host or cells: FaDu", "assay": "Cellular Assay for Inhibition of DNA-PK Phosphorylation at Serine 2056 in FaDu cells (sandwich ELISA, neocarzinostatin)", "type": "cell-based", "conditions": "pSer2056 DNA-PK, Table 3", "protocol": "FaDu cells were purchased from ATCC and maintained in MEM alpha medium (Life Technologies, cat. no. 12561) supplemented with 10% fetal bovine serum, and 1% GlutaMAX at 37° C. supplemented with 5% CO2. 50,000 cells were seeded to each well of a 96-well cell culture plate in 50 μL of culture medium and incubated for 16-24 hours. Three-fold serially diluted compounds were prepared in DMSO. Culture media was used to prepare compound treatments to 0.3% DMSO (dimethyl sulphoxide) content. Compound treatments were added to the cells for 1 hour prior incubation, followed by the addition of neocarzinostatin in fresh culture medium to 1 μg/mL final concentration for an additional 2 hours incubation to induce DNA DSBs (double-strand breaks). DMSO controls were incubated with fresh culture medium alone for the additional two hours incubation. The cells were then lysed and frozen at −20° C. Cell lysates were thawed on wet ice and protein concentrations quantified by BCA Protein Assay (Thermo #23225). Lysis buffer was used to normalize lysates by protein content and all lysates were then investigated by sandwich ELISA by means of DNA-PK-specific antibodies (Abcam ab44815: total DNA-PK; ab124918: phosphoserine-2056 DNA-PK) in sandwich ELISA format on the MSD S600MM platform (MesoScale Discovery). % inhibition was calculated for all data points: =1−(DATA_PT−AVERAGE(DMSO controls))/(AVERAGE(NCS controls)−AVERAGE(DMSO controls)). Logarithm of the molar concentration of compound was plotted against percent inhibition to calculate IC50 values, with curve fit settings for data fit to log(inhibitor) vs. normalized response—Variable slope using curve fit software (GraphPad Prism).", "units": {"IC50": "nM"}, "values": [
      {"compound": "CS(=O)(=O)Nc1cnc2cc(N3CCOCC3)nc(O[C@H]3CC[C@@H](Nc4cc5c(cn4)CNCC5)CC3)c2c1", "note": "[LFA2002, N-[7-morpholino-5-[4-(5,6,7,8-tetrahydro-2,7-naphthyridin-3-ylamino)cyclohexoxy]-1,6-naphthyridin-3-yl]methanesulfonamide]", "IC50": "100 to 1000"},
      {"compound": "CS(=O)(=O)Nc1cnc2cc(N3CCOCC3)nc(O[C@H]3CC[C@@H](Nc4ncc(N5CCNCC5)cn4)CC3)c2c1", "note": "[LFA2014, N-[7-morpholino-5-[4-[(5-piperazin-1-ylpyrimidin-2-yl)amino]cyclohexoxy]-1,6-naphthyridin-3-yl]methanesulfonamide]", "IC50": "100 to 1000"},
      {"compound": "CN1CCN(c2cnc(N[C@H]3CC[C@@H](Oc4nc(N5CCOCC5)cc5ncc(NS(C)(=O)=O)cc45)CC3)nc2)CC1", "note": "[LFA2032, N-[5-[4-[[5-(4-methylpiperazin-1-yl)pyrimidin-2-yl]amino]cyclohexoxy]-7-morpholino-1,6-naphthyridin-3-yl]methanesulfonamide]", "IC50": "< 100"},
      {"compound": "CS(=O)(=O)Nc1cnc2cc(N3CCOCC3)nc(O[C@H]3CC[C@@H](Nc4ncc(OCCN5CCNCC5)cn4)CC3)c2c1", "note": "[LFA2022, N-[7-morpholino-5-[4-[[5-(2-piperazin-1-ylethoxy)pyrimidin-2-yl]amino]cyclohexoxy]-1,6-naphthyridin-3-yl]methanesulfonamide]", "IC50": "< 100"},
      {"compound": "CS(=O)(=O)Nc1cnc2cc(N3CCOCC3)nc(O[C@H]3CC[C@@H](Nc4ncc(N5CCN(C6COC6)CC5)cn4)CC3)c2c1", "note": "[LFA2019, N-[7-morpholino-5-[4-[[5-[4-(oxetan-3-yl)piperazin-1-yl]pyrimidin-2-yl]amino]cyclohexoxy]-1,6-naphthyridin-3-yl]methanesulfonamide]", "IC50": "< 100"},
      {"compound": "CS(=O)(=O)Nc1cnc2cc(N3CCOCC3)nc(O[C@H]3CC[C@@H](Nc4ncc(OCCN5CCOCC5)cn4)CC3)c2c1", "note": "[LFA2023, N-[7-morpholino-5-[4-[[5-(2-morpholinoethoxy)pyrimidin-2-yl]amino]cyclohexoxy]-1,6-naphthyridin-3-yl]methanesulfonamide]", "IC50": "< 100"},
      {"compound": "CN1CCC(Oc2cnc(N[C@H]3CC[C@@H](Oc4nc(N5CCOCC5)cc5ncc(O)cc45)CC3)nc2)C1", "note": "(some centres unmarked) [LFA2033, 5-[4-[[5-(1-methylpyrrolidin-3-yl)oxypyrimidin-2-yl]amino]cyclohexoxy]-7-morpholino-1,6-naphthyridin-3-ol]", "IC50": "< 100"},
      {"compound": "CS(=O)(=O)Nc1cnc2cc(N3CCOCC3)nc(O[C@H]3CC[C@@H](Nc4ncc5c(n4)CCNC5)CC3)c2c1", "note": "[LFA2005, N-[7-morpholino-5-[4-(5,6,7,8-tetrahydropyrido[4,3-d]pyrimidin-2-ylamino)cyclohexoxy]-1,6-naphthyridin-3-yl]methanesulfonamide]", "IC50": "100 to 1000"},
      {"compound": "CS(=O)(=O)Nc1cnc2cc(N3CCOCC3)nc(O[C@H]3CC[C@@H](Nc4ncc(N5CC6CNCC6C5)cn4)CC3)c2c1", "note": "(some centres unmarked) [LFA2015, N-[5-[4-[[5-(2,3,3a,4,6,6a-hexahydro-1H-pyrrolo[3,4-c]pyrrol-5-yl)pyrimidin-2-yl]amino]cyclohexoxy]-7-morpholino-1,6-naphthyridin-3-yl]methanesulfonamide]", "IC50": "100 to 1000"},
      {"compound": "CN1CCN(CCOc2cnc(N[C@H]3CC[C@@H](Oc4nc(N5CCOCC5)cc5ncc(O)cc45)CC3)nc2)CC1", "note": "[LFA2034, 5-[4-[[5-[2-(4-methylpiperazin-1-yl)ethoxy]pyrimidin-2-yl]amino]cyclohexoxy]-7-morpholino-1,6-naphthyridin-3-ol]", "IC50": "< 100"},
      {"compound": "CN1CC[C@H](Oc2cnc(N[C@H]3CC[C@@H](Oc4nc(N5CCOCC5)cc5ncc(NS(C)(=O)=O)cc45)CC3)nc2)C1", "note": "[LFA2036, N-[5-[4-[[5-[(3S)-1-methylpyrrolidin-3-yl]oxypyrimidin-2-yl]amino]cyclohexoxy]-7-morpholino-1,6-naphthyridin-3-yl] methanesulfonamide]", "IC50": "< 100"},
      {"compound": "CN1CCc2nc(N[C@H]3CC[C@@H](Oc4nc(N5CCOCC5)cc5ncc(O)cc45)CC3)ncc2C1", "note": "[LFA2078, 5-[4-[(6-methyl-7,8-dihydro-5H-pyrido[4,3-d]pyrimidin-2-yl)amino]cyclohexoxy]-7-morpholino-1,6-naphthyridin-3-ol]", "IC50": "< 100"},
      {"compound": "CN1CCC(Oc2ccc(N[C@H]3CC[C@@H](Oc4nc(N5CCOCC5)cc5ncc(NS(C)(=O)=O)cc45)CC3)nc2)C1", "note": "(some centres unmarked) [LFA2006, N-[5-[4-[[5-(1-methylpyrrolidin-3-yl)oxy-2-pyridyl]amino]cyclohexoxy]-7-morpholino-1,6-naphthyridin-3-yl]methanesulfonamide]", "IC50": "< 100"},
      {"compound": "CN1CCc2nc(NC3CCC(Oc4nc(N5CCOCC5)cc5ncc(NS(C)(=O)=O)cc45)CC3)ncc2C1", "note": "(centres unmarked) [LFA2007, N-[5-[4-[(6-methyl-7,8-dihydro-5H-pyrido[4,3-d]pyrimidin-2-yl)amino]cyclohexoxy]-7-morpholino-1,6-naphthyridin-3-yl]methanesulfonamide]", "IC50": "< 100"},
      {"compound": "CN1CCN(c2ccc(N[C@H]3CC[C@@H](Oc4nc(N5CCOCC5)cc5ncc(NS(C)(=O)=O)cc45)CC3)nc2)CC1", "note": "[LFA2001, N-[5-[4-[[5-(4-methylpiperazin-1-yl)-2-pyridyl]amino]cyclohexoxy]-7-morpholino-1,6-naphthyridin-3-yl]methanesulfonamide]", "IC50": "< 100"},
      {"compound": "CS(=O)(=O)Nc1cnc2cc(N3CCOCC3)nc(O[C@H]3CC[C@@H](Nc4ncc(CCN5CCOCC5)cn4)CC3)c2c1", "note": "[LFA2030, N-[7-morpholino-5-[4-[[5-(2-morpholinoethyl)pyrimidin-2-yl]amino]cyclohexoxy]-1,6-naphthyridin-3-yl]methanesulfonamide]", "IC50": "< 100"},
      {"compound": "Oc1cnc2cc(N3CCOCC3)nc(O[C@H]3CC[C@@H](Nc4ncc(OCCN5CCOCC5)cn4)CC3)c2c1", "note": "[LFA2035, 7-morpholino-5-[4-[[5-(2-morpholinoethoxy)pyrimidin-2-yl]amino]cyclohexoxy]-1,6-naphthyridin-3-ol]", "IC50": "< 100"},
      {"compound": "Oc1cnc2cc(N3CCOCC3)nc(O[C@H]3CC[C@@H](Nc4ncc(N5CCN(CC(F)F)CC5)cn4)CC3)c2c1", "note": "[LFA2012]", "IC50": "< 100"},
      {"compound": "CN1CCC(Oc2cnc(N[C@H]3CC[C@@H](Oc4nc(N5CCOCC5)cc5ncc(NS(C)(=O)=O)cc45)CC3)nc2)C1", "note": "(some centres unmarked) [LFA2025, N-[5-[4-[[5-(1-methylpyrrolidin-3-yl)oxypyrimidin-2-yl]amino]cyclohexoxy]-7-morpholino-1,6-naphthyridin-3-yl]methanesulfonamide]", "IC50": "100 to 1000"},
      {"compound": "CN1CCN(CCc2cnc(N[C@H]3CC[C@@H](Oc4nc(N5CCOCC5)cc5ncc(NS(C)(=O)=O)cc45)CC3)nc2)CC1", "note": "[LFA2031, N-[5-[4-[[5-[2-(4-methylpiperazin-1-yl)ethyl]pyrimidin-2-yl]amino]cyclohexoxy]-7-morpholino-1,6-naphthyridin-3-yl]methanesulfonamide]", "IC50": "< 100"},
      {"compound": "CS(=O)(=O)Nc1cnc2cc(N3CCOCC3)nc(O[C@H]3CC[C@@H](Nc4ncc(OCCO)cn4)CC3)c2c1", "note": "[LFA2028, N-[5-[4-[[5-(2-hydroxyethoxy)pyrimidin-2-yl]amino]cyclohexoxy]-7-morpholino-1,6-naphthyridin-3-yl]methanesulfonamide]", "IC50": "< 100"}
    ]},
    {"tested_on": "FaDu cell line", "assay": "Prodrug Activation in Hypoxic Stirred Tumour Cell Suspensions", "conditions": "10 μM, 4 hours, 0.2% O2", "values": [
      {"compound": "Cn1c(Cn2nnc(-c3cnc4cc(N5CCOCC5)nc(O[C@H]5CC[C@@H](n6ccnc6)CC5)c4c3)n2)cnc1[N+](=O)[O-]", "note": "[LFA123, 4-[5-(4-imidazol-1-ylcyclohexoxy)-3-[2-[(3-methyl-2-nitro-imidazol-4-yl)methyl]tetrazol-5-yl]-1,6-naphthyridin-7-yl]morpholine]", "Fraction of prodrug converted to active form, Hypoxic 0.2% O2": "A (A is 0.15 to 1)"}
    ]},
    {"tested_on": "FaDu cell line", "assay": "Prodrug Activation in Hypoxic Stirred Tumour Cell Suspensions", "conditions": "10 μM, 4 hours, 5% O2", "values": [
      {"compound": "Cn1c(Cn2nnc(-c3cnc4cc(N5CCOCC5)nc(O[C@H]5CC[C@@H](n6ccnc6)CC5)c4c3)n2)cnc1[N+](=O)[O-]", "note": "[LFA123, 4-[5-(4-imidazol-1-ylcyclohexoxy)-3-[2-[(3-methyl-2-nitro-imidazol-4-yl)methyl]tetrazol-5-yl]-1,6-naphthyridin-7-yl]morpholine]", "Fraction of prodrug converted to active form, Oxic 5% O2": "B (B is 0.05 to 0.15)"}
    ]}
  ]
}
